According to the NIST ThermoML archive (doi:10.1021/je5008394):

Details: Liquid, dynamic light scattering

COC(C)(C)C [2-methoxy-2-methylpropane]
thermal diffusivity [m2/s]
Details	101.33 kPa	1500 kPa	2500 kPa	4000 kPa	5500 kPa	7000 kPa	8500 kPa	10000 kPa
303.15 K	6.4e-08	6.66e-08	6.7e-08	6.75e-08	6.79e-08	6.81e-08	6.83e-08	6.85e-08
313.15 K	6.17e-08	–	–	–	–	–	–	–
318.15 K	–	6.29e-08	6.32e-08	6.37e-08	6.4e-08	6.44e-08	6.47e-08	6.49e-08
323.15 K	5.87e-08	–	–	–	–	–	–	–
333.15 K	5.7e-08	5.94e-08	5.97e-08	6e-08	6.05e-08	6.09e-08	6.15e-08	6.21e-08
343.15 K	5.42e-08	–	–	–	–	–	–	–
348.15 K	–	5.62e-08	5.63e-08	5.68e-08	5.72e-08	5.78e-08	5.85e-08	5.92e-08
353.15 K	5.26e-08	–	–	–	–	–	–	–
363.15 K	5.05e-08	5.33e-08	5.34e-08	5.38e-08	5.43e-08	5.5e-08	5.57e-08	5.68e-08
373.15 K	4.83e-08	–	–	–	–	–	–	–
378.15 K	–	5.06e-08	5.07e-08	5.1e-08	5.15e-08	5.23e-08	5.32e-08	5.44e-08
383.15 K	4.72e-08	–	–	–	–	–	–	–
393.15 K	4.64e-08	4.83e-08	4.83e-08	4.86e-08	4.92e-08	4.99e-08	5.09e-08	5.21e-08
403.15 K	4.55e-08	4.68e-08	4.69e-08	4.71e-08	4.77e-08	4.85e-08	4.95e-08	5.08e-08
413.1 K	–	4.54e-08	4.55e-08	4.58e-08	4.64e-08	4.72e-08	4.82e-08	4.95e-08
413.15 K	4.48e-08	–	–	–	–	–	–	–
423.15 K	4.38e-08	4.42e-08	4.43e-08	4.46e-08	4.51e-08	4.59e-08	4.7e-08	4.83e-08
433.15 K	4.31e-08	4.32e-08	4.32e-08	4.36e-08	–	–	–	–
